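These data come from cells grown in 96-well plates and exposed to compound for 48 hours at five concentrations. The concentration for 50% growth inhibition is given as GI50. TGI: total growth inhibition.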
Tests used:
Assay in all cases: NCI-60 cell line screen, 48 h
[1] = test system: NCI-H226 lung
[2] = test system: OVCAR-4 ovarian
[3] = test system: SNB-19 CNS
[4] = test system: OVCAR-5 ovarian
[5] = test system: MALME-3M melanoma
[6] = test system: HOP-62 NSCLC
[7] = test system: HCT-116 colon
[8] = test system: NCI/ADR-RES ovarian
[9] = test system: IGROV1 ovarian
[10] = test system: NCI-H23 lung
[11] = test system: U251 CNS
[12] = test system: HCT-15 colon
[13] = test system: TK-10 renal
[14] = test system: ACHN renal
[15] = test system: SF-539 CNS
[16] = test system: LOX IMVI melanoma
[17] = test system: PC-3 prostate
[18] = test system: HL-60(TB) leukemia
[19] = test system: CAKI-1 renal
[20] = test system: SNB-75 CNS
[21] = test system: K-562 leukemia
[22] = test system: NCI-H522 lung
[23] = test system: T-47D breast
[24] = test system: SK-MEL-5 melanoma
[25] = test system: BT-549 breast
[26] = test system: KM12 colon
[27] = test system: UACC-257 melanoma
[28] = test system: DU-145 prostate
[29] = test system: MOLT-4 leukemia
[30] = test system: CCRF-CEM leukemia
[31] = test system: SK-OV-3 ovarian
[32] = test system: HCC-2998 colon
[33] = test system: MCF7 breast
[34] = test system: SF-268 CNS
[35] = test system: HS 578T breast
[36] = test system: RPMI-8226 leukemia
[37] = test system: UACC-62 melanoma
[38] = test system: OVCAR-8 ovarian
[39] = test system: EKVX NSCLC
[40] = test system: SF-295 CNS
[41] = test system: RXF 393 renal
[42] = test system: SK-MEL-28 melanoma
[43] = test system: UO-31 renal
[44] = test system: NCI-H460 lung
[45] = test system: 786-0 renal
[46] = test system: SW-620 colon
[47] = test system: HOP-92 NSCLC
[48] = test system: COLO 205 colon
[49] = test system: SK-MEL-2 melanoma
[50] = test system: MDA-MB-435
[51] = test system: A549 NSCLC
[52] = test system: OVCAR-3 ovarian
[53] = test system: SN12C renal
[54] = test system: MDA-MB-231 breast
[55] = test system: HT29 colon

COc1ccc(-n2cc(-c3cc(OC)c(OC)c(OC)c3)[nH]c2=S)cc1Cl
GI50 [1]: 27.1 µM | TGI [1]: > 100 µM | GI50 [2]: 27.2 µM | TGI [2]: > 100 µM | GI50 [3]: 19.5 µM | TGI [3]: 58.4 µM | GI50 [4]: 28.3 µM | TGI [4]: > 100 µM | GI50 [5]: 40.1 µM | TGI [5]: > 100 µM | GI50 [6]: 22.1 µM | TGI [6]: 52.8 µM | GI50 [7]: 24.4 µM | TGI [7]: > 100 µM | GI50 [8]: 27.5 µM | TGI [8]: > 100 µM | GI50 [9]: 25.6 µM | TGI [9]: > 100 µM | GI50 [10]: 46.4 µM | TGI [10]: > 100 µM | GI50 [11]: 20 µM | TGI [11]: 50.7 µM | GI50 [12]: > 100 µM | TGI [12]: > 100 µM | GI50 [13]: 17.2 µM | TGI [13]: 66.7 µM | GI50 [14]: 44.3 µM | TGI [14]: > 100 µM | GI50 [15]: 18.4 µM | TGI [15]: 48.8 µM | GI50 [16]: 6.12 µM | TGI [16]: > 100 µM | GI50 [17]: 54.6 µM | TGI [17]: > 100 µM | GI50 [18]: > 100 µM | TGI [18]: > 100 µM | GI50 [19]: 4.86 µM | TGI [19]: 33.7 µM | GI50 [20]: 18.6 µM | TGI [20]: 48.7 µM | GI50 [21]: > 100 µM | TGI [21]: > 100 µM | GI50 [22]: > 100 µM | TGI [22]: > 100 µM | GI50 [23]: 29 µM | TGI [23]: > 100 µM | GI50 [24]: 27.2 µM | TGI [24]: > 100 µM | GI50 [25]: 10.3 µM | TGI [25]: 31.3 µM | GI50 [26]: > 100 µM | TGI [26]: > 100 µM | GI50 [27]: > 100 µM | TGI [27]: > 100 µM | GI50 [28]: 35.7 µM | TGI [28]: > 100 µM | GI50 [29]: > 100 µM | TGI [29]: > 100 µM | GI50 [30]: 0.6 µM | TGI [30]: > 100 µM | GI50 [31]: 17 µM | TGI [31]: 48.3 µM | GI50 [32]: 39.7 µM | TGI [32]: > 100 µM | GI50 [33]: 68 µM | TGI [33]: > 100 µM | GI50 [34]: 18.3 µM | TGI [34]: 50.3 µM | GI50 [35]: 17.5 µM | TGI [35]: 60 µM | GI50 [36]: 5.14 µM | TGI [36]: > 100 µM | GI50 [37]: > 100 µM | TGI [37]: > 100 µM | GI50 [38]: 50.2 µM | TGI [38]: > 100 µM | GI50 [39]: 37.3 µM | TGI [39]: > 100 µM | GI50 [40]: 43 µM | TGI [40]: > 100 µM | GI50 [41]: 17.6 µM | TGI [41]: > 100 µM | GI50 [42]: 63 µM | TGI [42]: > 100 µM | GI50 [43]: 38.6 µM | TGI [43]: > 100 µM | GI50 [44]: 18.9 µM | TGI [44]: > 100 µM | GI50 [45]: 23.4 µM | TGI [45]: 54.5 µM | GI50 [46]: > 100 µM | TGI [46]: > 100 µM | GI50 [47]: 14 µM | TGI [47]: 33 µM | GI50 [48]: 70.8 µM | TGI [48]: > 100 µM | GI50 [49]: > 100 µM | TGI [49]: > 100 µM | GI50 [50]: > 100 µM | TGI [50]: > 100 µM | GI50 [51]: 65.5 µM | TGI [51]: > 100 µM | GI50 [52]: 26.1 µM | TGI [52]: > 100 µM | GI50 [53]: 46.7 µM | TGI [53]: > 100 µM | GI50 [54]: 7.7 µM | TGI [54]: 49.8 µM | GI50 [55]: > 100 µM | TGI [55]: > 100 µM

Reference: PubChem BioAssay (NCI)
